# Test results published in paper PMC12040169 (PLOS Biology, 2025).
# Assay: in vitro
# Conditions: human, hela cells, % viability
row,SMILES,"viability at 28.5 h, 10 µM"
1,CCCCC(=O)NC1CCN(C(=O)c2cccc(C#N)c2)CC1 [CBK306309],83.4%
2,Cc1nc(-c2cccnc2)[nH]c(=O)c1CC(=O)N(C)C1CCCCC1 [CBK306310],88.7%
3,CC(C)Oc1ncc(C(=O)Nc2cnn(CC(N)=O)c2)cc1Cl [CBK306311],90.4%
4,Cn1cc(CNCc2ccc(N3CCCC3)nc2)c(-c2cccnc2)n1 [CBK306312],105%
5,O=C(c1cc(Cl)c[nH]1)N1CCN(Cc2cc(=O)n3ccsc3n2)CC1 [CBK306313],92.9%
6,COc1ncccc1NC(=O)CSCC#N [CBK306314],108%
7,COc1ccc(C)cc1-n1ccc(C(=O)NC(C)(C)C)n1 [CBK306315],78.8%
8,Cn1cc(CNCC2CCN(c3ccccc3)C2)c(-c2ccncc2)n1 (stereo not shown) [CBK306317],94.3%
9,CNC(=O)NC(=O)C(C)NCC1(c2cc(C)ccc2OC)CCOCC1 (stereo not shown) [CBK306318],79.1%
10,Cc1nc(SCCn2cccn2)c2c(=O)n(C)c(=O)n(CC(C)C)c2n1 [CBK306321],99.1%
11,Cn1cc(NC(=O)c2ccc(CN3CCCC3=O)cc2)cn1 [CBK306322],89.7%
12,Cc1[nH]c(=O)c(C#N)c(C)c1CCC(=O)NCc1cn2ccccc2n1 [CBK306325],93%
13,OCCn1ncc2c(NCc3ccc(-n4cccn4)nc3)ncnc21 [CBK306326],87.8%
14,CC(C)Oc1ncc(C(=O)NCc2cccc(NC(N)=O)c2)cc1Cl [CBK306327],94.4%
15,Cc1nc(C(F)(F)F)ccc1C(=O)N1CCCC1c1ccc[nH]1 (stereo not shown) [CBK306328],107%
16,NC(=O)COc1ccc(CNC(=O)CN2CCc3ccccc32)cc1 [CBK306330],96.1%
17,CN(CC(=O)NCc1ccc(OCC(N)=O)cc1)C1CCCCC1 [CBK306331],81.7%
18,NC(=O)COc1ccc(CNC(=O)CN2CCCCCC2)cc1 [CBK306332],87.6%
19,Cc1ccc(NCC2CCN(Cc3cc(=O)n4ccccc4n3)C2)nc1 (stereo not shown) [CBK306334],80.7%
20,Cc1ccc(NCC2CCN(CC(=O)Nc3cc(C)on3)C2)nc1 (stereo not shown) [CBK306337],95.5%
21,CC(=O)N1CC2(CCCC2)c2c(F)cccc21 [CBK306339],78.2%
22,Cc1ccc2nc(CN3CCC(CNc4ccccn4)C3)cc(=O)n2c1 (stereo not shown) [CBK306340],83.7%
23,N#Cc1ccc(NCC(=O)Nc2ncn(Cc3cccnc3)n2)cc1 [CBK306343],94.3%
24,NC(=O)NC(CC(=O)N1CCCC1c1ccncc1)c1cccc(Br)c1 (stereo not shown) [CBK306345],92.7%

row,SMILES,"viability at 28.5 h, 10 µM"
1,CS(=O)(=O)N1CCc2cc(-c3csc(C4CC4)n3)ccc21 [CBK306347],70.5%
2,COc1ccnc(N2CCN(C(=O)CCc3ccsc3)CC2)n1 [CBK306350],90.5%
3,COc1ccc(CC2CCCN2C(=O)Cn2cncn2)cc1 (stereo not shown) [CBK306351],97.3%
4,CC(C)c1noc(NCc2nnc3n2CCCCC3)n1 [CBK306352],113%
5,Cc1nc(COc2ccc(Cl)cc2)sc1C(=O)N1CCC1 [CBK306353],88.5%
6,CC(=O)Nc1cccc(-n2cnnc2SCC2CCOCC2)c1 [CBK306354],92%
7,CC1CN(C)c2ccccc2CN1C(=O)Cc1cn2ccsc2n1 (stereo not shown) [CBK306355],89.1%
8,Cc1noc(C(C)C)c1C(=O)NC1CCCN(c2ccn(C)n2)C1=O (stereo not shown) [CBK306356],75.8%
9,CC(NC(=O)N1CCC1)c1cccc(S(N)(=O)=O)c1 (stereo not shown) [CBK306357],91.5%
10,CC(CCO)CNS(=O)(=O)c1ccc(N2CCCC2=O)cc1 (stereo not shown) [CBK306358],90.5%
11,CCCc1cc(O)nc(SCCCCn2ccnc2C)n1 [CBK306359],107%
12,O=C(O)C1CC1C(=O)N1CC2(CCCC2)c2c(F)cccc21 (stereo not shown) [CBK306360],112%
13,COc1ccc(C(C)NC2CCN(c3nc(C)cs3)CC2)cc1F (stereo not shown) [CBK306362],94.7%
14,CN1CCN(CC(=O)Nc2cc(C(F)(F)F)ccc2Cl)C(C)(C)C1 [CBK306363],85.8%
15,O=C(Nc1cccc(F)c1)N1CCC(Cc2cccnc2)CC1 [CBK306369],87.3%
16,Cc1nn(C)c(C)c1OCC(=O)Nc1nc2c(cc1C#N)CCC2 [CBK306371],81%
17,CC(C)NC(=O)CCNc1ncc(C(N)=O)cc1Cl [CBK306373],92.9%
18,Cc1nn(C)c(C)c1OCC(=O)Nc1sc2c(c1C#N)CCC2 [CBK306374],79.4%
19,Cc1cc(CC(=O)N2CCN(CCNC(=O)C3CCCC3)CC2)no1 [CBK306376],113%
20,COCCNC(=O)CN(C)c1nc2ccccc2[nH]1 [CBK306378],84.6%
21,c1cn2cnnc2c(N2CCOC(c3ccsc3)C2)n1 (stereo not shown) [CBK306379],88.8%
22,c1csc(C2CN(c3nccn4cnnc34)CCO2)c1 (stereo not shown) [CBK306380],85%
23,Cc1ncc2c(n1)CCCC2NC(=O)c1ccccc1Cn1cncn1 (stereo not shown) [CBK306381],100%
24,O=S(=O)(Cc1cc(Cl)ccc1F)N1CCN(CCO)CC1 [CBK306385],80%

row,SMILES,"viability at 28.5 h, 10 µM"
1,CCc1nc2ccccc2n1C1CCN(C(=O)Cc2cccnc2)CC1 [CBK306389],100%
2,Cn1nc(CN(Cc2ccccc2C(F)(F)F)C2CC2)[nH]c1=O [CBK306391],98.2%
3,O=C(NCc1ccsc1)NCC1CCN(c2ccncc2)CC1 [CBK306394],91.3%
4,CC(=O)Nc1cccc(C(=O)OCC(=O)N2CCCC2)c1 [CBK306395],91.6%
5,COCC1CCCN(S(=O)(=O)c2cnc3ccsc3c2)C1 (stereo not shown) [CBK306397],66.6%
6,FC(F)CN1CCN(Cc2ccc(Oc3cnccn3)cc2)CC1 [CBK306399],101%
7,CC(=O)Nc1c[nH]nc1C1CCCN(c2cccc(F)c2C#N)C1 (stereo not shown) [CBK306401],97.2%
8,CC(C)c1nc(NCc2nnc(C(C)C)n2C)nc(N(C)C)n1 [CBK306402],104%
9,Cc1noc(CN2CCNC(=O)C2c2ccccc2C(F)(F)F)n1 (stereo not shown) [CBK306405],98.2%
10,CCNC(=O)Nc1c[nH]nc1C1CCCN(c2cccc(F)c2C#N)C1 (stereo not shown) [CBK306406],86.5%
11,Cn1cc(CN2CCNC(=O)C2c2ccccc2C(F)(F)F)cn1 (stereo not shown) [CBK306407],90.4%
12,Cc1nc(-c2cc3c(s2)CCN(Cc2ccc(CO)o2)C3)cs1 [CBK306411],90%
13,N#Cc1ccc(NCC(=O)Nc2ncccc2O)cc1 [CBK306413],88.7%
14,Cc1cc(S(=O)(=O)Nc2ccccc2-c2nncn2C)c(C)o1 [CBK306414],85.9%
15,Cn1ccnc1CN1CCNC(=O)C1c1ccccc1C(F)(F)F (stereo not shown) [CBK306415],85.1%
16,c1cnc(Oc2ccc(CN3CCCC(c4cn[nH]c4)C3)cc2)cn1 (stereo not shown) [CBK306416],86.6%
17,Cc1ccsc1C(C)NC1CCCN(c2ccn(C)n2)C1=O (stereo not shown) [CBK306419],106%
18,Cc1cc(C(=O)N2CCc3c(sc4ncnc(N)c34)C2)sc1C [CBK306420],99.4%
19,Cc1cc(C)n(CC(=O)N2CCNC(=O)C2c2ccccc2Cl)n1 (stereo not shown) [CBK306421],92.6%
20,Cn1nccc1CN1CCNC(=O)C1c1ccccc1C(F)(F)F (stereo not shown) [CBK306422],86.9%
21,CC1CN(c2cc(CNc3nc4ccccn4c3C#N)ccn2)CCO1 (stereo not shown) [CBK306423],78.7%
22,CC(=O)Nc1ccc(CNc2nnc(C3CCCCC3)o2)cc1 [CBK306427],105%
23,Cc1noc(C)c1CC(=O)Nc1nc2c(cc1C#N)CCCC2 [CBK306429],97.1%
24,N#Cc1c[nH]c(C(=O)NC2CCN(C(=O)c3ccccc3)CC2)c1 [CBK306433],91%

row,SMILES,"viability at 28.5 h, 10 µM"
1,CCNS(=O)(=O)c1ccc2c(c1)N(Cc1n[nH]c(CC)n1)CC2 [CBK306434],86.9%
2,Cn1cc(CC(=O)Nc2nc3c(cc2C#N)CCCC3)cn1 [CBK306436],90.7%
3,O=c1scnn1Cc1nc(-c2ccsc2)no1 [CBK306438],83.4%
4,Cc1c(CNc2nnc(C(C)(C)C)o2)cnn1C [CBK306439],83.5%
5,CC(C)c1noc(NCCc2cn3c(n2)CCCC3)n1 [CBK306444],93.5%
6,Cc1c(C(C)NCC(C)(C)N(C)C)cnn1-c1ccc(C#N)cc1 (stereo not shown) [CBK306447],87.7%
7,CNC(=O)CC1CCN(c2cc(C#N)ccc2C(F)(F)F)CC1 [CBK306450],112%
8,CC1CN(c2cc(CNc3ncccc3Cl)ccn2)CCO1 (stereo not shown) [CBK306456],88.3%
9,CCOC(=O)c1cnn(C2CCCN(c3ccc(C#N)nc3)C2)c1 (stereo not shown) [CBK306458],113%
10,CCc1ccc2c(c1)C(CCNC(=O)c1sccc1C)C(=O)N2 (stereo not shown) [CBK306459],88.5%
11,O=C(NCCc1cccnc1)Nc1ccc(CN2CCCC2=O)cc1 [CBK306461],80%
12,Cc1c(C(C)NCC(O)c2ccco2)cnn1-c1ccc(C#N)cc1 (stereo not shown) [CBK306462],88.4%
13,O=C(Cn1cnnn1)NCc1cccnc1OCC(F)(F)F [CBK306467],96.1%
14,CCC(=O)Nc1ccc(-c2csc(N3CCSCC3)n2)cc1 [CBK306469],87%
15,CC1CCN(S(=O)(=O)c2ccc(S(=O)(=O)Nc3ncnn3C)cc2)CC1 [CBK306470],92.3%
16,CC(CN(C)C(=O)c1nc(=O)[nH][nH]1)Oc1ccc(Cl)c(Cl)c1 (stereo not shown) [CBK306471],87.9%
17,Cc1c(C(=O)N2CCNC(=O)C2C(C)C)cnn1-c1ccc(Br)cc1 (stereo not shown) [CBK306472],91.5%
18,CCc1nn2c(=O)cc(CN3CCN(C(=O)c4cccs4)CC3)nc2s1 [CBK306474],108%
19,Cc1ccc(C#N)cc1S(=O)(=O)NC(=O)CC1CCOc2ccccc21 (stereo not shown) [CBK306476],85.5%
20,CC1(C)CCCCC1CC(=O)NS(=O)(=O)c1cccc(-c2nnco2)c1 (stereo not shown) [CBK306477],79.3%
21,COCCn1c(SC(C)C(=O)OC)nc2ccc(Br)cc2c1=O (stereo not shown) [CBK306479],88.5%
22,CCCc1nnc(SC(C)C(=O)N2CCCc3ccccc32)[nH]1 (stereo not shown) [CBK306480],90%
